Measurements reported in paper PMC12269308, “Martinostat as a novel HDAC inhibitor to overcome tyrosine kinase inhibitor resistance in chronic myeloid leukemia” (Clinical Epigenetics, 2025).

Legend:
Details in all cases: read-out: IC50 (nM)^1 / Martinostat
HDAC2 = HDAC2 (Homo sapiens, UniProt Q92769); test: fluorescence HDAC isoenzyme activity assay; assay type: biochemical
HDAC3 = HDAC3 (Homo sapiens, UniProt O15379); test: fluorescence HDAC isoenzyme activity assay; assay type: biochemical
HDAC10 = biological target: T1, HDAC10 (Homo sapiens, UniProt Q969S8); test: fluorescence HDAC isoenzyme activity assay; assay type: biochemical
T1 sequence (Q969S8 1-669): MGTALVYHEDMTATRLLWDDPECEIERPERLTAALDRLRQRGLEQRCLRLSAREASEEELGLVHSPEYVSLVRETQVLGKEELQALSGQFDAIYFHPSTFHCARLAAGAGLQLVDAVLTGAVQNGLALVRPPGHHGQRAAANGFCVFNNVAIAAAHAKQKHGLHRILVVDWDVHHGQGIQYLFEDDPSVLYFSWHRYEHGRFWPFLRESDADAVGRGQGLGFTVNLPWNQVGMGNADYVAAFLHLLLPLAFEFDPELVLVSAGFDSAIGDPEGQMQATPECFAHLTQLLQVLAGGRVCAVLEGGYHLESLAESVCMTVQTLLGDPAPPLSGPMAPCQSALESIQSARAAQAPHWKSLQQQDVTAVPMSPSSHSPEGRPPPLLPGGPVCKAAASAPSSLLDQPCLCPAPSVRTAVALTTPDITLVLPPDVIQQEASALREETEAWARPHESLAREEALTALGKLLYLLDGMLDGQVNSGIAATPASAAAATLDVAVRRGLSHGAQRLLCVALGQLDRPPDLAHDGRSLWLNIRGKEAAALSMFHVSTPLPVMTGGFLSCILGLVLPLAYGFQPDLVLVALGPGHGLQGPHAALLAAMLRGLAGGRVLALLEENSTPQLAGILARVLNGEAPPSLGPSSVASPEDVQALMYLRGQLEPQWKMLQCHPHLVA

HDAC1 = HDAC1 (Homo sapiens, UniProt Q13547); test: fluorescence HDAC isoenzyme activity assay; assay type: biochemical
HDAC1, sequence (Q13547 whole entry): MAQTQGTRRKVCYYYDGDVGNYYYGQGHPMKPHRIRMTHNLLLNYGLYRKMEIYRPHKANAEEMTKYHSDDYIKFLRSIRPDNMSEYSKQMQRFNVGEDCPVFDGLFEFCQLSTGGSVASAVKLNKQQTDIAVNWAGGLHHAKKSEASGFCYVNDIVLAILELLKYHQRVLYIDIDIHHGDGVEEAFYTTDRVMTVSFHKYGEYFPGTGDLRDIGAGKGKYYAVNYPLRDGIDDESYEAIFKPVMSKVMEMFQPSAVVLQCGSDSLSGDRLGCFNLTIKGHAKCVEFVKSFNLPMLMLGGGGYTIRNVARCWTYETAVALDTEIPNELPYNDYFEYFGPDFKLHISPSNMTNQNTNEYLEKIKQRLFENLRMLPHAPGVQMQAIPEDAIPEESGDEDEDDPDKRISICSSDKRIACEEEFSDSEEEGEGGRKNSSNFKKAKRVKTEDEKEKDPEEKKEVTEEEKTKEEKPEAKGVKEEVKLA

HDAC6 = biological target: T2, HDAC6 (Homo sapiens, UniProt Q9UBN7); test: fluorescence HDAC isoenzyme activity assay; assay type: biochemical
T2 sequence (Q9UBN7 1-1215): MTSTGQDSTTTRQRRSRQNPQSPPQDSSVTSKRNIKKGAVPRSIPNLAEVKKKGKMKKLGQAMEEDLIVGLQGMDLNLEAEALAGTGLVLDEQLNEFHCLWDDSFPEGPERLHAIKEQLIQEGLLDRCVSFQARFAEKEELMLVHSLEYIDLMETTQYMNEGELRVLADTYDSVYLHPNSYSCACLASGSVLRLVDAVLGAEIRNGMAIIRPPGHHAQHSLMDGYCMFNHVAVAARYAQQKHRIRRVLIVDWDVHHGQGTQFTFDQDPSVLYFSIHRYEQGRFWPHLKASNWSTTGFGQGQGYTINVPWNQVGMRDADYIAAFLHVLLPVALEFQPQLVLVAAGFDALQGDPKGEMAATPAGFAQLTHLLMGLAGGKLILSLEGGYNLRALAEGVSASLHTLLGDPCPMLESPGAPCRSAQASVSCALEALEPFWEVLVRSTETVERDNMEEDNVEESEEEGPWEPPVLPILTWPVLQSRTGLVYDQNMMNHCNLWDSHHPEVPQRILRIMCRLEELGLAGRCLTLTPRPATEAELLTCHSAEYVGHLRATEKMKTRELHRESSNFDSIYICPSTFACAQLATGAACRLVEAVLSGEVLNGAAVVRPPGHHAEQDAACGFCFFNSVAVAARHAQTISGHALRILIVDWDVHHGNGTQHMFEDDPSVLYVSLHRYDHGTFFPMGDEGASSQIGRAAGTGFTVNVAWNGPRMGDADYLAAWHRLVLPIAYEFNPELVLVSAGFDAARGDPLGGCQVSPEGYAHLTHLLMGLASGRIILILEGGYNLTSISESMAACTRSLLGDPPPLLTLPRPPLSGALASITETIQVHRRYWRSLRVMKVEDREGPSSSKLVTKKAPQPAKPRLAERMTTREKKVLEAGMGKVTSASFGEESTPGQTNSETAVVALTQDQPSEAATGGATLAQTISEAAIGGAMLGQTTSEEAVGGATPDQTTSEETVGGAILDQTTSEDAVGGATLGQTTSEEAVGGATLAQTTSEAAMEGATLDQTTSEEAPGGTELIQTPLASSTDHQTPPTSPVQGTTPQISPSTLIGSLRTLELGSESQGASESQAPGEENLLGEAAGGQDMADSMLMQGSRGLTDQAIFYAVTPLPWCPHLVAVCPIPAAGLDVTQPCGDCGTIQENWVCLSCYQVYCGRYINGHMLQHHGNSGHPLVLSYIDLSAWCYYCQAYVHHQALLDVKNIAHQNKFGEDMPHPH

HDAC11 = biological target: T3, HDAC11 (Homo sapiens, UniProt Q96DB2); test: fluorescence HDAC isoenzyme activity assay; assay type: biochemical
T3 sequence (Q96DB2 1-347): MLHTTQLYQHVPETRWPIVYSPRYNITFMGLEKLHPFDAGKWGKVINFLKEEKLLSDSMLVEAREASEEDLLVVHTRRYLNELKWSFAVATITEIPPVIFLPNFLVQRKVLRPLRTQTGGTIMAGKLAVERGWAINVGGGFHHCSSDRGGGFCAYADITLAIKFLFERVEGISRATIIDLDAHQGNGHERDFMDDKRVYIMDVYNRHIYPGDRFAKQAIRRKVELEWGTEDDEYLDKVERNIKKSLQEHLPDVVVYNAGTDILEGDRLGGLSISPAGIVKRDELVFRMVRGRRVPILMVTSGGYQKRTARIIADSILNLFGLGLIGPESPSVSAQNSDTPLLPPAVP

HDAC8 = biological target: T4, HDAC8 (Homo sapiens, UniProt Q9BY41); test: biochemical; design: Fluorescence HDAC isoenzyme deacetylase activity assay, excitation 360 nm, emission 460 nm
T4 sequence (Q9BY41 1-377): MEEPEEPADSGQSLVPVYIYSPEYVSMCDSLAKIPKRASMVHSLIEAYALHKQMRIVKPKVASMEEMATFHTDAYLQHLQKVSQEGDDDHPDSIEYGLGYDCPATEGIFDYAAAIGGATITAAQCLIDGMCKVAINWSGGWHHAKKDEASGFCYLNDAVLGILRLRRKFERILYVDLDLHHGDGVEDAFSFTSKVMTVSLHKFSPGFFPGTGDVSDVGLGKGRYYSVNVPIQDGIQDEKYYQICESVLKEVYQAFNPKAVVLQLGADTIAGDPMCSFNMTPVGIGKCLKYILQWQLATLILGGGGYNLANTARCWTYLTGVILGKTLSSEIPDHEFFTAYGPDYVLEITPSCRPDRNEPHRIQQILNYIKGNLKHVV
Procedure: HDAC activity assays were performed as previously reported. The fluorescence signal was measured using a SpectraMax i3x fluorimeter (Molecular Devices Korea) with SoftMax Pro software at an excitation wavelength of 360 nm and an emission wavelength of 460 nm. […] We conducted total HDAC activity assays to assess the effect of martinostat on the deacetylase activity in vitro.

HDAC2, sequence (Q92769 whole entry): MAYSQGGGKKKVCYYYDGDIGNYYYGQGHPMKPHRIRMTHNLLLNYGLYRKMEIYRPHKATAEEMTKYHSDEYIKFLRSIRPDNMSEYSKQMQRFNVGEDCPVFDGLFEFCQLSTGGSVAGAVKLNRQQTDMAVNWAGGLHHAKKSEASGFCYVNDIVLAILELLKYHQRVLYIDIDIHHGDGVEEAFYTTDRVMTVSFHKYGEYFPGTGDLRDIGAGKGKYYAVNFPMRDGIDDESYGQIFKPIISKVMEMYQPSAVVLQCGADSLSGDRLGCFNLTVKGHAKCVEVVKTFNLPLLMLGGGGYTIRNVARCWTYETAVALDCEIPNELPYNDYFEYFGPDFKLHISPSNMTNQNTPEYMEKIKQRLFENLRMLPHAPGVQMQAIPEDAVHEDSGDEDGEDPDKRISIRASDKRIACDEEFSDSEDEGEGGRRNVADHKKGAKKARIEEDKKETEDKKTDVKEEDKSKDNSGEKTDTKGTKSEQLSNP
HDAC3, sequence (O15379 whole entry): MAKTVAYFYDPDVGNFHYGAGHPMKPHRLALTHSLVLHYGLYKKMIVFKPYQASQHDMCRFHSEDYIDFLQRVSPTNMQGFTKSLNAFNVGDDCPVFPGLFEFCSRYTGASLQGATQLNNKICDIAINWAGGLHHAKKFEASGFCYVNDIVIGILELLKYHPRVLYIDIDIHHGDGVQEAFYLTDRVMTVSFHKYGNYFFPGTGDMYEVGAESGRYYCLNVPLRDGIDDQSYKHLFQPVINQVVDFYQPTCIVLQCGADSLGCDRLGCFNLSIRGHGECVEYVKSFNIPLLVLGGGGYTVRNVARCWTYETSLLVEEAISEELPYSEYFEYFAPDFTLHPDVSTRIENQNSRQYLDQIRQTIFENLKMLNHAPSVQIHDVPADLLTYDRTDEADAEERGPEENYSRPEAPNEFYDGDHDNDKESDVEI

IC50 (HDAC2): 61 ± 7 nM | IC50 (HDAC3): 79 ± 8 nM | IC50 (HDAC10): 72 ± 7 nM | IC50 (HDAC1): 80 ± 3 nM | IC50 (HDAC6): 70 ± 7 nM | IC50 (HDAC11): 34 ± 1 nM | IC50 (HDAC8): 1650 ± 155 nM
Compound: CN(Cc1ccc(/C=C/C(=O)NO)cc1)CC12CC3CC(CC(C3)C1)C2 [martinostat]
